From ChEMBL document CHEMBL1140599, “DAT/SERT selectivity of flexible GBR 12909 analogs modeled using 3D-QSAR methods” (Bioorg Med Chem, 2007)

Experiments:
[1] = target: Sodium-dependent dopamine transporter (Rattus norvegicus, UniProt P23977); experiment: Displacement of [125I]RTI55 from DAT in rat brain synaptosomes; format: subcellular
Rattus norvegicus = species: Rattus norvegicus; experiment: Selectivity for rat DAT over rat SERT
[2] = target: Sodium-dependent serotonin transporter (Rattus norvegicus, UniProt P31652); experiment: Displacement of [125I]RTI55 from SERT in rat brain synaptosomes; format: subcellular
Sodium-dependent serotonin transporter, sequence (P31652 whole entry): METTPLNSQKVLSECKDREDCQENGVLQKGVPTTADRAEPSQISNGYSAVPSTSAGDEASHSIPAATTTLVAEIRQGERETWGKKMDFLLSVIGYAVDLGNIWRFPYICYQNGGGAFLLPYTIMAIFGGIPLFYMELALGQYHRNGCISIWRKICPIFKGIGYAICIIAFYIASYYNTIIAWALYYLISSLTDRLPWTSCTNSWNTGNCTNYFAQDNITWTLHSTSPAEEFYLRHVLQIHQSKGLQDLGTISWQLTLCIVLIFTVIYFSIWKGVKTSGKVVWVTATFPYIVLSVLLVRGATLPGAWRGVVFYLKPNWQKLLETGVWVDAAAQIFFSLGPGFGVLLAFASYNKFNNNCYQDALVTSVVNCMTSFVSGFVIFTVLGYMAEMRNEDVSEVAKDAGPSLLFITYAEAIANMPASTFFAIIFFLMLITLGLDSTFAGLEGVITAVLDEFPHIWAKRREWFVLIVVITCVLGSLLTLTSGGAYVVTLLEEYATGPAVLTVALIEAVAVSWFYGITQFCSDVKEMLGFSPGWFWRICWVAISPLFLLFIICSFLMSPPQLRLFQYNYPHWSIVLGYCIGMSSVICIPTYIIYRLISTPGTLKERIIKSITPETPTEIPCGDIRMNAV

Sodium-dependent dopamine transporter, sequence (P23977 whole entry): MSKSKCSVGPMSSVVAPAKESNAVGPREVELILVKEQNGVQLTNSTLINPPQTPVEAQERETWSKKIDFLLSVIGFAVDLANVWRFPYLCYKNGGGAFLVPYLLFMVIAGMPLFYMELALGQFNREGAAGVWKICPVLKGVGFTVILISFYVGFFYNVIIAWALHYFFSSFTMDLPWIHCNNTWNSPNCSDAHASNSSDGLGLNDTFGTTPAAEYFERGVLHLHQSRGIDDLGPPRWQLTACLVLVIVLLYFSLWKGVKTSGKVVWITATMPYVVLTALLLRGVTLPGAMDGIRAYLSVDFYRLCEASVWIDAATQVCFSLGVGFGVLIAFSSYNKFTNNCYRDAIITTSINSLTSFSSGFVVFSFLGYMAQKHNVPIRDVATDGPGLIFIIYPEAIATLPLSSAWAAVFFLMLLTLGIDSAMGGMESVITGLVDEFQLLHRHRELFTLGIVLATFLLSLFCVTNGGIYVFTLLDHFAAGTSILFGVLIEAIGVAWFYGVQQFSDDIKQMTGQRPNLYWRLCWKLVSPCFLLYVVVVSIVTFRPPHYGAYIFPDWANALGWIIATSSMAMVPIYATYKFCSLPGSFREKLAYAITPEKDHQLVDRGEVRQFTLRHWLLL

Compound | Ki [1] [nM] | Ratio pKi (Rattus norvegicus) | Ki [2] [nM]
Fc1ccc(C(OCCC2CCN(Cc3ccc4ccccc4c3)CC2)c2ccc(F)cc2)cc1 | 0.71 | 2.51 | –
O=C1CCCC1CN1CCN(CCOC(c2ccc(F)cc2)c2ccc(F)cc2)CC1 (racemic) | – | 1.06 | –
Fc1ccc(C(OCCN2CCN(Cc3cc4ccccc4s3)CC2)c2ccc(F)cc2)cc1 | 4.1 | 2.08 | 495
Fc1ccc(C(OCCC2CCN(C[C@H]3Cc4ccccc4CN3)CC2)c2ccc(F)cc2)cc1 | 9.32 | 0.21 | 15.2
Fc1ccc(C(OCCC2CCN(Cc3ccc(Br)cc3)CC2)c2ccc(F)cc2)cc1 | – | 2.26 | –
Fc1ccc(C(OCCN2CCN(Cc3cc4ccccc4[nH]3)CC2)c2ccc(F)cc2)cc1 | 0.7 | 2.23 | 119
Fc1ccc(C(OCCC2CCN(C[C@H]3C[C@@H]3c3ccccc3)CC2)c2ccc(F)cc2)cc1 | 1.3 | 2.02 | 136
Fc1ccc(C(OCCN2CCN(CC#Cc3ccccc3)CC2)c2ccc(F)cc2)cc1 | 20 | 1.12 | 266
CCCN1CCN(CCOC(c2ccc(F)cc2)c2ccc(F)cc2)CC1 | – | 1.35 | –
O=[N+]([O-])c1ccc(CN2CCC(CCOC(c3ccc(F)cc3)c3ccc(F)cc3)CC2)cc1 | – | 2.51 | –
Fc1ccc(C(OCCC2CCN(CC#Cc3ccccc3)CC2)c2ccc(F)cc2)cc1 | 5.3 | 1.49 | 164
Fc1ccc(C(OCCN2CCN(CC34CC5CC(CC(C5)C3)C4)CC2)c2ccc(F)cc2)cc1 | 100 | 0.78 | 598
Cc1ccc(CN2CCC(CCOC(c3ccc(F)cc3)c3ccc(F)cc3)CC2)cc1 | – | 1.62 | –
COc1ccc2c(c1)CCC(CN1CCN(CCOC(c3ccc(F)cc3)c3ccc(F)cc3)CC1)C2=O (racemic) | – | -0.87 | –
Fc1ccc(C(OCCC2CCN(Cc3cccc4ccccc34)CC2)c2ccc(F)cc2)cc1 | – | 1.36 | –
COc1ccc2c(c1)CCC(CN1CCN(CCOC(c3ccc(F)cc3)c3ccc(F)cc3)CC1)=C2 | 53 | 0.03 | –
O[C@H]1c2ccccc2CC[C@@H]1CN1CCN(CCOC(c2ccc(F)cc2)c2ccc(F)cc2)CC1 | 18 | 0.25 | 32
Fc1ccc(C(OCCC2CCN(Cc3cc4ccccc4o3)CC2)c2ccc(F)cc2)cc1 | 1.01 | 1.93 | 85
Fc1ccc(C(OCCN2CCN(Cc3ccc4ccccc4n3)CC2)c2ccc(F)cc2)cc1 | 56 | -0.04 | 51
Fc1ccc(C(OCCC2CCN(C[C@@H]3Cc4ccccc4CN3)CC2)c2ccc(F)cc2)cc1 | 4.77 | 1 | 48.1
CCN1CCN(CCOC(c2ccc(F)cc2)c2ccc(F)cc2)CC1 | – | 1.79 | –
Fc1ccc(C(OCCC2CCN(Cc3cc4ccccc4s3)CC2)c2ccc(F)cc2)cc1 | 1.61 | 2.18 | 246
Fc1ccc(C(OCCC2CCN(C[C@@H]3C[C@H]3c3ccccc3)CC2)c2ccc(F)cc2)cc1 | 0.8 | 1.44 | 22

Compound | Ki [1] [nM] | Ratio pKi (Rattus norvegicus) | Ki [2] [nM]
O=C1CCCCCC1CN1CCN(CCOC(c2ccc(F)cc2)c2ccc(F)cc2)CC1 (racemic) | – | 1.03 | –
COc1ccc2c(c1)CC[C@@H](CN1CCN(CCOC(c3ccc(F)cc3)c3ccc(F)cc3)CC1)[C@H]2O | 14 | -0.67 | –
COc1ccccc1CN1CCC(CCOC(c2ccc(F)cc2)c2ccc(F)cc2)CC1 | – | 0.6 | –
O=C1c2ccccc2CCC1CN1CCN(CCOC(c2ccc(F)cc2)c2ccc(F)cc2)CC1 (racemic) | – | 0.29 | –
Fc1ccc(C(OCCN2CCN(Cc3cnc4ccccc4c3)CC2)c2ccc(F)cc2)cc1 | 16.1 | 1.48 | 485
O[C@H]1c2ccccc2CC[C@H]1CN1CCN(CCOC(c2ccc(F)cc2)c2ccc(F)cc2)CC1 | – | 1.36 | –
Fc1ccc(C(OCCC2CCN(Cc3ccc(I)cc3)CC2)c2ccc(F)cc2)cc1 | – | 1.99 | –
COc1cccc(CN2CCC(CCOC(c3ccc(F)cc3)c3ccc(F)cc3)CC2)c1 | – | 1.08 | –
Fc1ccc(C(OCCN2CCN(Cc3cccc4ccccc34)CC2)c2ccc(F)cc2)cc1 | 31 | 0.89 | 243
C=CCN1CCN(CCOC(c2ccc(F)cc2)c2ccc(F)cc2)CC1 | – | 1.41 | –
Fc1ccc(C(OCCC2CCN(Cc3ccc(Cl)cc3)CC2)c2ccc(F)cc2)cc1 | – | 2.3 | –
Fc1ccc(C(OCCN2CCN(Cc3cc4ccccc4o3)CC2)c2ccc(F)cc2)cc1 | 6.4 | 1.65 | 286
Fc1ccc(C(OCCN2CCN(Cc3ccc4ncccc4c3)CC2)c2ccc(F)cc2)cc1 | 61.8 | 0.95 | 551
Fc1ccc(C(OCCN2CCN(CCCCl)CC2)c2ccc(F)cc2)cc1 | 42 | 0.91 | 338
Fc1ccc(C(OCCN2CCN(Cc3ccc4ccccc4c3)CC2)c2ccc(F)cc2)cc1 | 8 | 1.59 | 312
N#Cc1ccc(CN2CCC(CCOC(c3ccc(F)cc3)c3ccc(F)cc3)CC2)cc1 | – | 2.7 | –
COc1ccc(CN2CCC(CCOC(c3ccc(F)cc3)c3ccc(F)cc3)CC2)cc1 | – | 1.53 | –
Fc1ccc(CN2CCC(CCOC(c3ccc(F)cc3)c3ccc(F)cc3)CC2)cc1 | – | 2.03 | –
Fc1ccc(C(OCCC2CCN(Cc3ccccc3)CC2)c2ccc(F)cc2)cc1 | – | 1.24 | –
Fc1ccc(C(OCCN2CCN(CC3=Cc4ccccc4CC3)CC2)c2ccc(F)cc2)cc1 | – | 1.61 | –
O=C1CCCCC1CN1CCN(CCOC(c2ccc(F)cc2)c2ccc(F)cc2)CC1 (racemic) | 87 | 1.29 | 1690
Fc1ccc(C(OCCC2CCN(Cc3cc4ccccc4[nH]3)CC2)c2ccc(F)cc2)cc1 | 0.73 | 2.08 | 88
Fc1ccc(C(OCCC2CCN(Cc3ccc(C(F)(F)F)cc3)CC2)c2ccc(F)cc2)cc1 | – | 2.6 | –
